{
  "source": "patent US11896043B2",
  "about": "“Intestinal immune-enhancing agent, food product, and medicament” (DAICEL CORPORATION, priority 2017, dated 2024)",
  "origin": "cited, not measured here",
  "test_system": "IgA",
  "data": [
    {"smiles": "OC[C@H]1O[C@@H](O[C@H]2[C@H](O)[C@@H](O)[C@@H](O[C@]3(CO)O[C@H](CO)[C@@H](O)[C@@H]3O)O[C@@H]2CO)[C@H](O)[C@@H](O)[C@H]1O", "note": "[lactosucrose, 4^G-β-D-galactosylsucrose]", "values": [
      {"measurement": "amounts of IgA in the feces and cecal contents", "setting": "2% and 5% LS added feed for 4 weeks", "value": "significantly increased"},
      {"measurement": "amount of IgA in the feces", "setting": "after two weeks", "value": "decreased greatly"},
      {"measurement": "amount of IgA in the feces relative to the control group", "setting": "one week after ingestion", "value": "about twice"}
    ]}
  ]
}
